Values quoted from earlier work as cited in patent US20130143897A1, “ORAL CONTROLLED RELEASE PHARMACEUTICAL COMPOSITIONS OF BLONANSERIN” (LUPIN LIMITED, priority 2010, published 2013).

How the values were obtained:
serotonin (S2) receptors = serotonin (S2) receptors (Homo sapiens, UniProt P28223)
dopamine (D2) receptors = dopamine (D2) receptors (Homo sapiens, UniProt P14416)
dopamine (D2) receptors, sequence (P14416 whole entry): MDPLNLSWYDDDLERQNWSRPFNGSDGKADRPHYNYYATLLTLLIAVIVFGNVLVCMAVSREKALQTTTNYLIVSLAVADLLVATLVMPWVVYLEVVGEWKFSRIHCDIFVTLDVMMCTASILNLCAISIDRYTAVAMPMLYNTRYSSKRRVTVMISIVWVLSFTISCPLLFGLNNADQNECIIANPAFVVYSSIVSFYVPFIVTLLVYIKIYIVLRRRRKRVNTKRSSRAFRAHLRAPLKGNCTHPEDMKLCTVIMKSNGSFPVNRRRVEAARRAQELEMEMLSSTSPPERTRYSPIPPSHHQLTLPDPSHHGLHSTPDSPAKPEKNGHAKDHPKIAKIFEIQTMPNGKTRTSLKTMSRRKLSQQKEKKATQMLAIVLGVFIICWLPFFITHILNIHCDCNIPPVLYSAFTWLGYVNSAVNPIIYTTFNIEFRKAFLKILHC

serotonin (S2) receptors, sequence (P28223 whole entry): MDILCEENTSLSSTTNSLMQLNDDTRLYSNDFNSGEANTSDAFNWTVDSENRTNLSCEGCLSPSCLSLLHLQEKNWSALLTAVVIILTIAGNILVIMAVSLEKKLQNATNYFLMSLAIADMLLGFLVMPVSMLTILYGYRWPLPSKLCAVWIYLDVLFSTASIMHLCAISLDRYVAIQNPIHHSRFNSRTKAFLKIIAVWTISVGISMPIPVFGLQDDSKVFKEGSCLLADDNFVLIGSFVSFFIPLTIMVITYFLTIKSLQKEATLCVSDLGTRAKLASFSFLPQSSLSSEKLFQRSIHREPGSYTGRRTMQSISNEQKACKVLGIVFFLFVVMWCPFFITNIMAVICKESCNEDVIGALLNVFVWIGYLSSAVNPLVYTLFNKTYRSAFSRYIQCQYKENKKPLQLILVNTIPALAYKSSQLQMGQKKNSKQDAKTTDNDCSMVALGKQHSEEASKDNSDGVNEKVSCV

CCN1CCN(c2cc(-c3ccc(F)cc3)c3c(n2)CCCCCC3)CC1 [Blonanserin, 2-(4-Ethyl-1-piperazinyl)-4-(4-fluorophenyl)-5,6,7,8,9,10-hexahydrocycloocta[b]pyridine]
binding property to serotonin (S2) receptors (serotonin (S2) receptors): potent | solubility in water: poor | binding property to dopamine (D2) receptors (dopamine (D2) receptors): potent
